According to PMC10123126, “Insights into translocation mechanism and ribosome evolution from cryo-EM structures of translocation intermediates of Giardia intestinalis” (Nucleic Acids Research, 2023):

Biological target: T1, eEF2 (Giardia duodenalis, UniProt A8BU59)
T1 construct: gene GL50803_0017570; GDP in G domain (domain I)
Test: cryo-EM structure
Type: binding

T1 sequence (A8BU59 1-898): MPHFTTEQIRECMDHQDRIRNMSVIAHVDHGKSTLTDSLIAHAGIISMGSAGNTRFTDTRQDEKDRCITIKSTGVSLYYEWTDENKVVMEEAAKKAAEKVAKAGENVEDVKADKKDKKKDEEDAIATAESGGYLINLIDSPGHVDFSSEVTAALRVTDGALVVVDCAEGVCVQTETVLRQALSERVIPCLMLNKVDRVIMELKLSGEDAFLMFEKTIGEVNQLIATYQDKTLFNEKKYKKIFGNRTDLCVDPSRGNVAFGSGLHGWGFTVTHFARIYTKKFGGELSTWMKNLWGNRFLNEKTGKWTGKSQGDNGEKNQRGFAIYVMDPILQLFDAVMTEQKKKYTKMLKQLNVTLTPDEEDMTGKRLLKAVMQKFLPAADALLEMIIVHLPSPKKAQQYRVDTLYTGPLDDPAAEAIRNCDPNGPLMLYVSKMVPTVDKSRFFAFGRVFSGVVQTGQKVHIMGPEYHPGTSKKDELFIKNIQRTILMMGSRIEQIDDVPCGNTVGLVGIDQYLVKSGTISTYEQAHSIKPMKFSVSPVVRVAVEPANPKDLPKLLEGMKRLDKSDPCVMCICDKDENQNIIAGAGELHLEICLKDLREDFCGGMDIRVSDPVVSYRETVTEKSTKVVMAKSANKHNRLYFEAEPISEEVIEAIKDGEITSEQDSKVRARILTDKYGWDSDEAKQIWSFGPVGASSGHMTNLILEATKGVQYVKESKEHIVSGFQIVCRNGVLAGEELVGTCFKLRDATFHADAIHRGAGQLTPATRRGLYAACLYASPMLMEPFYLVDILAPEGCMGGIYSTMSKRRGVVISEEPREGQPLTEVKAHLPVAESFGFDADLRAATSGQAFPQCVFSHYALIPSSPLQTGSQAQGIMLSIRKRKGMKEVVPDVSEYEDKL

For `Nc1nc2c(ncn2[C@@H]2O[C@H](COP(=O)(O)OP(=O)(O)O)[C@@H](O)[C@H]2O)c(=O)[nH]1` [GDP], which cryo-EM structure (ribosome-bound eEF2, state B (chimeric hybrid), G domain, P-loop (G1), G4 and G5 motifs, naturally bound, no inhibitor or analog added) is on record?
Its cryo-EM structure is “We found a clear density of GDP in the G domain of eEF2”.

For `O=P(O)(O)O` [Pi], which cryo-EM structure (ribosome-bound eEF2·GDP, state B, leaving phosphate of GTP hydrolysis, held by H143 of switch-II) is on record?
The cryo-EM structure was “A distinct density of the ‘leaving Pi’ group can be seen”.
